Laboratory results reported in patent US11937601B2, “Method for treatment of soybean rust” (Globachem NV, priority 2020, dated 2024).

How the values were obtained:
P. pachyrhizi [1] = assay: Field trial, soybean rust severity and efficacy on naturally infected soybean; assay type: in vivo, Phakopsora pachyrhizi
Protocol: (§1) A field trial was conducted to evaluate the effect and efficacy of zoxamide on soybean rust disease on soybean (Glycine max) wherein plants were naturally infected by the disease (P. pachyrhizi). The trial was divided in the following 11 treatments: • TREATMENT 1: One treatment where plants were left untreated and in which natural progression of the disease was observed; • TREATMENT 2: One reference treatment which consisted of chlorothalonil applied in 1.3 kg/ha; • TREATMENT 3: One reference treatment which consisted of treatment with prothioconazole applied in 75 g/ha. • TREATMENT 4: One reference treatment with the mixture of prothioconazole and trifloxystrobin applied in amount of 70 g/ha of prothioconazole and 60 g/ha of trifloxystrobin. • TREATMENT 5: One reference treatment with wherein tebuconazole was applied in amount of 83.3 g/ha; mancozeb in amount of 1000 g/ha and picoxystrobin in amount of 66.6 g/ha. All four reference treatments (TREATMENTS 2-5) are currently available treatments of soybean rust, wherein the mentioned compositions were prepared from commercially available products prepared according to the respective label instructions and sprayed on the plants in amounts mentioned above and in Table 1 and 2. TREATMENTS 6-8: Three treatments wherein zoxamide was applied in different doses of (6) 180 g/ha, (7) 120 g/ha, and (8) 90 g/ha. TREATMENTS 9-11: Three treatments wherein zoxamide was applied together with prothioconazole in the following doses: (9) zoxamide 180 g/ha and prothioconazole 75 g/ha; (10) zoxamide 120 g/ha and prothioconazole 75 g/ha; and (11) zoxamide 90 g/ha and prothioconazole 75 g/ha. Each of the above treatments was applied on a plot of 3 meters by 6 meters in size and was repeated in 4 replicates. Zoxamide compositions used in this trial were prepared from the suspension concentrate containing 240 g/L of zoxamide, diluted with water to predetermined concentration, vegetable oil was added to concentration of 0.25% V/V, and such composition was sprayed on the plants in the predetermined amounts. First application of respective treatments was made when soybean plant reached BBCH growth stages around 60 to 75. Growth stages were defined according to Compendium of Growth Stage Identification Keys for Mono- and Dicotyledonous Plants, Extended BBCH scale, 2nd Edition 1997, ISBN 3-9520749-3-4. For each treatment, two applications of the respective treatment were made with 14 days interval between. Disease spread and defoliation were evaluated by visual estimation of degree of infection on leaves and defoliation. In Table 1 and Table 2, the following terms have the following meaning: % S—severity; % E—efficacy; 0.0%—disease progressed to maximum; 100.0%—no disease symptoms observed.

P. pachyrhizi [2] = assay: Field trial, defoliation percent of soybean naturally infected by soybean rust; assay type: in vivo, Phakopsora pachyrhizi
Protocol: as §1

[3] = 7 days after first application, chlorothalonil 1296 g/ha
[4] = 7 days after second application, chlorothalonil 1296 g/ha
[5] = 14 days after first application, chlorothalonil 1296 g/ha
[6] = 14 days after second application, chlorothalonil 1296 g/ha
[7] = 21 days after second application, chlorothalonil 1296 g/ha
[8] = 28 days after second application, chlorothalonil 1296 g/ha
[9] = 7 days after first application, prothioconazole 75 g/ha
[10] = 7 days after second application, prothioconazole 75 g/ha
[11] = 14 days after first application, prothioconazole 75 g/ha
[12] = 14 days after second application, prothioconazole 75 g/ha
[13] = 21 days after second application, prothioconazole 75 g/ha
[14] = 28 days after second application, prothioconazole 75 g/ha
[15] = 7 days after first application, zoxamide 90 g/ha
[16] = 7 days after first application, zoxamide 120 g/ha
[17] = 7 days after first application, zoxamide 180 g/ha
[18] = 7 days after second application, zoxamide 90 g/ha
[19] = 7 days after second application, zoxamide 120 g/ha
[20] = 7 days after second application, zoxamide 180 g/ha
[21] = 14 days after first application, zoxamide 90 g/ha
[22] = 14 days after first application, zoxamide 120 g/ha
[23] = 14 days after first application, zoxamide 180 g/ha
[24] = 14 days after second application, zoxamide 90 g/ha
[25] = 14 days after second application, zoxamide 120 g/ha
[26] = 14 days after second application, zoxamide 180 g/ha
[27] = 21 days after second application, zoxamide 90 g/ha
[28] = 21 days after second application, zoxamide 120 g/ha
[29] = 21 days after second application, zoxamide 180 g/ha
[30] = 28 days after second application, zoxamide 90 g/ha
[31] = 28 days after second application, zoxamide 120 g/ha
[32] = 28 days after second application, zoxamide 180 g/ha

Structure (SMILES): N#Cc1c(Cl)c(Cl)c(Cl)c(C#N)c1Cl [CHLOROTHALONIL, chlorothalonil]
- % E (efficacy) (P. pachyrhizi [1]; [3]): 100.00%
- % S (severity) (P. pachyrhizi [1]; [3]): 0.00%
- % E (efficacy) (P. pachyrhizi [1]; [4]): 76.47%
- % S (severity) (P. pachyrhizi [1]; [4]): 5.00%
- % E (efficacy) (P. pachyrhizi [1]; [5]): 66.67%
- % S (severity) (P. pachyrhizi [1]; [5]): 5.00%
- % E (efficacy) (P. pachyrhizi [1]; [6]): 76.47%
- % S (severity) (P. pachyrhizi [1]; [6]): 5.00%
- % E (efficacy) (P. pachyrhizi [1]; [7]): 68.11%
- % S (severity) (P. pachyrhizi [1]; [7]): 14.75%
- Defoliation % (P. pachyrhizi [2]; [7]): 50.00%
- Efficacy % (defoliation) (P. pachyrhizi [2]; [7]): 38.46%
- Defoliation % (P. pachyrhizi [2]; [8]): 60.00%
- Efficacy % (defoliation) (P. pachyrhizi [2]; [8]): 40.00%

Structure (SMILES): OC(Cc1ccccc1Cl)(Cn1nc[nH]c1=S)C1(Cl)CC1 (stereo not shown) [PROTHIOCONAZOLE, prothioconazole]
- % E (efficacy) (P. pachyrhizi [1]; [9]): 100.00%
- % S (severity) (P. pachyrhizi [1]; [9]): 0.00%
- % E (efficacy) (P. pachyrhizi [1]; [10]): 85.88%
- % S (severity) (P. pachyrhizi [1]; [10]): 3.00%
- % E (efficacy) (P. pachyrhizi [1]; [11]): 100.00%
- % S (severity) (P. pachyrhizi [1]; [11]): 0.00%
- % E (efficacy) (P. pachyrhizi [1]; [12]): 85.88%
- % S (severity) (P. pachyrhizi [1]; [12]): 3.00%
- % E (efficacy) (P. pachyrhizi [1]; [13]): 62.16%
- % S (severity) (P. pachyrhizi [1]; [13]): 17.50%
- Defoliation % (P. pachyrhizi [2]; [13]): 50.00%
- Efficacy % (defoliation) (P. pachyrhizi [2]; [13]): 38.46%
- Defoliation % (P. pachyrhizi [2]; [14]): 70.00%
- Efficacy % (defoliation) (P. pachyrhizi [2]; [14]): 30.00%

Structure (SMILES): CCC(C)(NC(=O)c1cc(Cl)c(C)c(Cl)c1)C(=O)CCl (stereo not shown) [ZOXAMIDE, 3,5-dichloro-N-(3-chloro-1-ethyl-1-methyl-2-oxopropyl)-4-methyl benzamide]
- % E (efficacy) (P. pachyrhizi [1]; [15]): 100.00%
- % S (severity) (P. pachyrhizi [1]; [15]): 0.00%
- % E (efficacy) (P. pachyrhizi [1]; [16]): 100.00%
- % S (severity) (P. pachyrhizi [1]; [16]): 0.00%
- % E (efficacy) (P. pachyrhizi [1]; [17]): 100.00%
- % S (severity) (P. pachyrhizi [1]; [17]): 0.00%
- % E (efficacy) (P. pachyrhizi [1]; [18]): 85.88%
- % S (severity) (P. pachyrhizi [1]; [18]): 3.00%
- % E (efficacy) (P. pachyrhizi [1]; [19]): 100.00%
- % S (severity) (P. pachyrhizi [1]; [19]): 0.00%
- % E (efficacy) (P. pachyrhizi [1]; [20]): 100.00%
- % S (severity) (P. pachyrhizi [1]; [20]): 0.00%
- % E (efficacy) (P. pachyrhizi [1]; [21]): 100.00%
- % S (severity) (P. pachyrhizi [1]; [21]): 0.00%
- % E (efficacy) (P. pachyrhizi [1]; [22]): 100.00%
- % S (severity) (P. pachyrhizi [1]; [22]): 0.00%
- % E (efficacy) (P. pachyrhizi [1]; [23]): 100.00%
- % S (severity) (P. pachyrhizi [1]; [23]): 0.00%
- % E (efficacy) (P. pachyrhizi [1]; [24]): 76.47%
- % S (severity) (P. pachyrhizi [1]; [24]): 5.00%
- % E (efficacy) (P. pachyrhizi [1]; [25]): 85.88%
- % S (severity) (P. pachyrhizi [1]; [25]): 3.00%
- % E (efficacy) (P. pachyrhizi [1]; [26]): 100.00%
- % S (severity) (P. pachyrhizi [1]; [26]): 0.00%
- % E (efficacy) (P. pachyrhizi [1]; [27]): 70.27%
- % S (severity) (P. pachyrhizi [1]; [27]): 13.75%
- % E (efficacy) (P. pachyrhizi [1]; [28]): 81.08%
- % S (severity) (P. pachyrhizi [1]; [28]): 8.75%
- % E (efficacy) (P. pachyrhizi [1]; [29]): 90.27%
- % S (severity) (P. pachyrhizi [1]; [29]): 4.50%
- Defoliation % (P. pachyrhizi [2]; [27]): 52.50%
- Efficacy % (defoliation) (P. pachyrhizi [2]; [27]): 35.38%
- Defoliation % (P. pachyrhizi [2]; [28]): 48.75%
- Efficacy % (defoliation) (P. pachyrhizi [2]; [28]): 40.00%
- Defoliation % (P. pachyrhizi [2]; [29]): 42.50%
- Efficacy % (defoliation) (P. pachyrhizi [2]; [29]): 47.69%
- Defoliation % (P. pachyrhizi [2]; [30]): 70.00%
- Efficacy % (defoliation) (P. pachyrhizi [2]; [30]): 30.00%
- Defoliation % (P. pachyrhizi [2]; [31]): 60.00%
- Efficacy % (defoliation) (P. pachyrhizi [2]; [31]): 40.00%
- Defoliation % (P. pachyrhizi [2]; [32]): 51.25%
- Efficacy % (defoliation) (P. pachyrhizi [2]; [32]): 48.75%
